Assay results published in ChEMBL document CHEMBL1201862, “PubChem BioAssay data set” (2004).
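Assay format: 96-well plates, 48-hour exposure. At the GI50, growth is halved.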 Active and inactive are the calls of the source. Cut-off read from the data, not from the text of the source: active = GI50 up to about 1.1 µM and inactive = higher.

How the values were obtained:
Assay in all cases: inhibition of tumour cell growth, NCI panel, 48 h
[1] = tested on: SNB-75
[2] = tested on: COLO 205
[3] = tested on: CCRF-CEM
[4] = tested on: NCI-H23
[5] = tested on: HCC 2998
[6] = tested on: UACC-62
[7] = tested on: SK-MEL-5
[8] = tested on: HOP-62
[9] = tested on: UACC-257
[10] = tested on: A498
[11] = tested on: MCF7
[12] = tested on: IGROV-1
[13] = tested on: MDA-MB-231
[14] = tested on: SF-295
[15] = tested on: U-251
[16] = tested on: M14
[17] = tested on: RPMI-8226
[18] = tested on: UO-31
[19] = tested on: SF-539
[20] = tested on: NCI/ADR-RES
[21] = tested on: SF-268
[22] = tested on: SK-OV-3
[23] = tested on: SK-MEL-2
[24] = tested on: K562
[25] = tested on: Hs-578T
[26] = tested on: RXF 393
[27] = tested on: T47D
[28] = tested on: 786-0
[29] = tested on: SNB-19
[30] = tested on: HCT-116
[31] = tested on: Malme-3M
[32] = tested on: NCI-H460
[33] = tested on: TK-10
[34] = tested on: HT-29
[35] = tested on: NCI-H522
[36] = tested on: OVCAR-4
[37] = tested on: EKVX
[38] = tested on: SR
[39] = tested on: HL-60
[40] = tested on: SK-MEL-28
[41] = tested on: BT-549
[42] = tested on: LOX IMVI
[43] = tested on: SN12C
[44] = tested on: HOP-92
[45] = tested on: SW-620
[46] = tested on: CAKI-1
[47] = tested on: OVCAR-3
[48] = tested on: MOLT-4
[49] = tested on: MDA-MB-435
[50] = tested on: ACHN
[51] = tested on: KM12
[52] = tested on: MDA-N
[53] = tested on: DU-145
[54] = tested on: NCI-H226
[55] = tested on: A549
[56] = tested on: PC-3
[57] = tested on: OVCAR-8
[58] = tested on: HCT-15
[59] = tested on: OVCAR-5

**Q.** Which results are given for `CN1CCN(C2=CC(=O)c3c(O)ccc(O)c3C2=O)CC1`?
**A.** GI50 [1]: 1.61 µM (inactive); GI50 [2]: 0.166 µM (active); GI50 [3]: 0.501 µM (active); GI50 [4]: 1.4 µM (inactive); GI50 [5]: 1.82 µM (inactive); GI50 [6]: 1.65 µM (inactive); GI50 [7]: 0.179 µM (active); GI50 [8]: 1 µM (active); GI50 [9]: 0.244 µM (active); GI50 [10]: 1.54 µM (inactive); GI50 [11]: 0.319 µM (active); GI50 [12]: 1.64 µM (inactive); GI50 [13]: 1.46 µM (inactive); GI50 [14]: 1.69 µM (inactive); GI50 [15]: 1.61 µM (inactive); GI50 [16]: 0.647 µM (active); GI50 [17]: 1.37 µM (inactive); GI50 [18]: 1.55 µM (inactive); GI50 [19]: 1.61 µM (inactive); GI50 [20]: 1.04 µM (active); GI50 [21]: 1.57 µM (inactive); GI50 [22]: 5.02 µM (inactive); GI50 [23]: 2.45 µM (inactive); GI50 [24]: 0.347 µM (active); GI50 [25]: 2.03 µM (inactive); GI50 [26]: 1.57 µM (inactive); GI50 [27]: 0.69 µM (active); GI50 [28]: 1.95 µM (inactive); GI50 [29]: 1.69 µM (inactive); GI50 [30]: 0.208 µM (active); GI50 [31]: 0.228 µM (active); GI50 [32]: 1.9 µM (inactive); GI50 [33]: 2.74 µM (inactive); GI50 [34]: 0.302 µM (active); GI50 [35]: 1.71 µM (inactive); GI50 [36]: 2.02 µM (inactive); GI50 [37]: 1.86 µM (inactive); GI50 [38]: 1.38 µM (inactive); GI50 [39]: 0.298 µM (active); GI50 [40]: 1.64 µM (inactive); GI50 [41]: 1.76 µM (inactive); GI50 [42]: 0.547 µM (active); GI50 [43]: 1.64 µM (inactive); GI50 [44]: 1.86 µM (inactive); GI50 [45]: 0.618 µM (active); GI50 [46]: 1.6 µM (inactive); GI50 [47]: 0.23 µM (active); GI50 [48]: 1.01 µM (active); GI50 [49]: 0.188 µM (active); GI50 [50]: 1.54 µM (inactive); GI50 [51]: 2.07 µM (inactive); GI50 [52]: 0.175 µM (active); GI50 [53]: 1.75 µM (inactive); GI50 [54]: 1.59 µM (inactive); GI50 [55]: 1.79 µM (inactive); GI50 [56]: 0.412 µM (active)

**Q.** What does the source list for `CC(=O)OC[C@H]1On2nnnc2[C@H](OC(C)=O)[C@@H](OC(C)=O)[C@@H]1OC(C)=O`?
**A.** GI50 [1]: > 100 µM (inactive); GI50 [2]: > 100 µM (inactive); GI50 [3]: > 100 µM (inactive); GI50 [4]: > 100 µM (inactive); GI50 [5]: > 100 µM (inactive); GI50 [6]: > 100 µM (inactive); GI50 [7]: > 100 µM (inactive); GI50 [8]: > 100 µM (inactive); GI50 [9]: > 100 µM (inactive); GI50 [57]: > 100 µM (inactive); GI50 [10]: > 100 µM (inactive); GI50 [11]: > 100 µM (inactive); GI50 [12]: > 100 µM (inactive); GI50 [13]: > 100 µM (inactive); GI50 [14]: > 100 µM (inactive); GI50 [15]: > 100 µM (inactive); GI50 [17]: > 100 µM (inactive); GI50 [18]: > 100 µM (inactive); GI50 [19]: > 100 µM (inactive); GI50 [20]: 91.8 µM (inactive); GI50 [21]: > 100 µM (inactive); GI50 [22]: > 100 µM (inactive); GI50 [23]: > 100 µM (inactive); GI50 [24]: > 100 µM (inactive); GI50 [25]: > 100 µM (inactive); GI50 [26]: > 100 µM (inactive); GI50 [27]: > 100 µM (inactive); GI50 [28]: > 100 µM (inactive); GI50 [30]: > 100 µM (inactive); GI50 [31]: > 100 µM (inactive); GI50 [32]: > 100 µM (inactive); GI50 [33]: 31 µM (inactive); GI50 [34]: > 100 µM (inactive); GI50 [35]: > 100 µM (inactive); GI50 [36]: > 100 µM (inactive); GI50 [37]: > 100 µM (inactive); GI50 [58]: > 100 µM; GI50 [38]: > 100 µM (inactive); GI50 [39]: > 100 µM (inactive); GI50 [40]: > 100 µM (inactive); GI50 [41]: > 100 µM (inactive); GI50 [42]: > 100 µM (inactive); GI50 [43]: > 100 µM (inactive); GI50 [59]: > 100 µM (inactive); GI50 [44]: > 100 µM (inactive); GI50 [45]: > 100 µM (inactive); GI50 [46]: > 100 µM (inactive); GI50 [47]: > 100 µM (inactive); GI50 [48]: > 100 µM (inactive); GI50 [49]: > 100 µM (inactive); GI50 [50]: > 100 µM (inactive); GI50 [51]: > 100 µM (inactive); GI50 [52]: > 100 µM (inactive); GI50 [53]: > 100 µM (inactive); GI50 [54]: > 100 µM (inactive); GI50 [55]: > 100 µM (inactive); GI50 [56]: > 100 µM (inactive)
